# From ChEMBL document CHEMBL1201862, “PubChem BioAssay data set” (2004)
#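 Each compound was tested at five concentrations against cells in 96-well plates for 48 hours. GI50 marks 50% less growth.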 The source made the active and inactive calls. Rule as the data show it: active = GI50 up to about 1.1 µM and inactive = higher.
# Key:
# Experiment in all cases: NCI tumour cell line growth inhibition, 48 h
# KM12 = tested on: KM12
# NCI/ADR-RES = tested on: NCI/ADR-RES
# CCRF-CEM = tested on: CCRF-CEM
# SF-295 = tested on: SF-295
# NCI-H522 = tested on: NCI-H522
# MDA-MB-231 = tested on: MDA-MB-231
# SNB-19 = tested on: SNB-19
# MDA-MB-435 = tested on: MDA-MB-435
# RXF 393 = tested on: RXF 393
# K562 = tested on: K562
# NCI-H23 = tested on: NCI-H23
# EKVX = tested on: EKVX
# TK-10 = tested on: TK-10
# OVCAR-8 = tested on: OVCAR-8
# 786-0 = tested on: 786-0
# SNB-75 = tested on: SNB-75
# RPMI-8226 = tested on: RPMI-8226
# IGROV-1 = tested on: IGROV-1
# OVCAR-4 = tested on: OVCAR-4
Structure (SMILES),GI50 (KM12),GI50 (NCI/ADR-RES),GI50 (CCRF-CEM),GI50 (SF-295),GI50 (NCI-H522),GI50 (MDA-MB-231),GI50 (SNB-19),GI50 (MDA-MB-435),GI50 (RXF 393),GI50 (K562),GI50 (NCI-H23),GI50 (EKVX),GI50 (TK-10),GI50 (OVCAR-8),GI50 (786-0),GI50 (SNB-75),GI50 (RPMI-8226),GI50 (IGROV-1),GI50 (OVCAR-4)
COc1ccc2oc(=O)c(-c3cc4c(c(C)n3)c(=O)oc3ccc(OC)cc34)cc2c1,> 100 µM (inactive),> 100 µM (inactive),> 100 µM (inactive),95.7 µM (inactive),> 100 µM (inactive),> 100 µM (inactive),25.5 µM (inactive),> 100 µM (inactive),> 100 µM (inactive),> 100 µM (inactive),> 100 µM (inactive),> 100 µM (inactive),> 100 µM (inactive),> 100 µM (inactive),1.94 µM (inactive),> 100 µM (inactive),> 100 µM (inactive),> 100 µM (inactive),
Cc1ccc(/C=C2/N/C(=N\N=C/c3ccccc3)NC2=O)cc1,> 100 µM (inactive),33.3 µM (inactive),,28.9 µM (inactive),31.8 µM (inactive),42.1 µM (inactive),25.8 µM (inactive),24.2 µM (inactive),26.5 µM (inactive),34.3 µM (inactive),54.2 µM (inactive),43.1 µM (inactive),32.2 µM (inactive),42.5 µM (inactive),20.3 µM (inactive),31.3 µM (inactive),16.2 µM (inactive),51.6 µM (inactive),14.8 µM (inactive)
CCN(CC)C(=S)SS(=O)(=O)c1ccc(NC(C)=O)cc1,55.8 µM (inactive),28 µM (inactive),,28.2 µM (inactive),< 0.0213 µM (active),17 µM (inactive),38.1 µM (inactive),17.1 µM (inactive),15.2 µM (inactive),33.9 µM (inactive),24 µM (inactive),44.5 µM (inactive),32.6 µM (inactive),15.7 µM (inactive),17.5 µM (inactive),25.4 µM (inactive),18.5 µM (inactive),,20.4 µM (inactive)
C/C(=N\NS(=O)(=O)c1ccc(C)cc1)P(=O)(O)O,> 100 µM (inactive),> 100 µM (inactive),,> 100 µM (inactive),> 100 µM (inactive),> 100 µM (inactive),> 100 µM (inactive),> 100 µM (inactive),> 100 µM (inactive),> 100 µM (inactive),> 100 µM (inactive),> 100 µM (inactive),> 100 µM (inactive),> 100 µM (inactive),> 100 µM (inactive),> 100 µM (inactive),> 100 µM (inactive),> 100 µM (inactive),> 100 µM (inactive)
COc1ccc2[nH]cc(CCNC(=O)[C@H](Cc3ccccc3)NC(=O)[C@@H](NCC(F)(F)F)C(C)C)c2c1,18.5 µM (inactive),19.1 µM (inactive),0.809 µM (active),11.2 µM (inactive),16.7 µM (inactive),18.5 µM (inactive),28.6 µM (inactive),19.8 µM (inactive),15.6 µM (inactive),29.7 µM (inactive),25.3 µM (inactive),17.4 µM (inactive),22 µM (inactive),23.3 µM (inactive),18.1 µM (inactive),,8.17 µM (inactive),21.2 µM (inactive),16.3 µM (inactive)
COc1ccc(NC(C)=O)c(C(=O)CCNC(C)=O)c1,> 100 µM (inactive),> 100 µM (inactive),> 100 µM (inactive),> 100 µM (inactive),> 100 µM (inactive),> 100 µM (inactive),> 100 µM (inactive),> 100 µM (inactive),> 100 µM (inactive),,> 100 µM (inactive),> 100 µM (inactive),> 100 µM (inactive),> 100 µM (inactive),> 100 µM (inactive),> 100 µM (inactive),> 100 µM (inactive),> 100 µM (inactive),> 100 µM (inactive)
C[N+](C)(CCNC(=O)c1cccc2cc3ccccc3nc12)Cc1ccc([N+](=O)[O-])s1,> 25 µM (inactive),> 25 µM (inactive),> 25 µM (inactive),> 25 µM (inactive),> 25 µM (inactive),> 25 µM (inactive),,> 25 µM (inactive),> 25 µM (inactive),> 25 µM (inactive),> 25 µM (inactive),> 25 µM (inactive),> 25 µM (inactive),> 25 µM (inactive),> 25 µM (inactive),> 25 µM (inactive),> 25 µM (inactive),> 25 µM (inactive),
Clc1ccc(-c2nc(-c3ccc(Cl)cc3)[s+]s2)cc1,42.1 µM (inactive),39.6 µM (inactive),37 µM (inactive),> 100 µM (inactive),29.4 µM (inactive),46.9 µM (inactive),50.5 µM (inactive),74.1 µM (inactive),84.7 µM (inactive),24.3 µM (inactive),78 µM (inactive),56.2 µM (inactive),24 µM (inactive),39.8 µM (inactive),38 µM (inactive),,32.6 µM (inactive),19.7 µM (inactive),27.7 µM (inactive)
CCCCOC(=O)Nc1ccc(S(=O)(=O)Nc2ccccc2Cl)cc1,24 µM (inactive),18.2 µM (inactive),19.2 µM (inactive),17.3 µM (inactive),18.5 µM (inactive),21 µM (inactive),22.6 µM (inactive),18.8 µM (inactive),21.3 µM (inactive),17.5 µM (inactive),25.6 µM (inactive),20.7 µM (inactive),21.6 µM (inactive),21.3 µM (inactive),21.5 µM (inactive),,16.3 µM (inactive),21.7 µM (inactive),12.4 µM (inactive)
C/C=C1\CC(C(=O)OCC)CCCCCCC1=O (stereo not given),> 100 µM (inactive),> 100 µM (inactive),19.1 µM (inactive),> 100 µM (inactive),99.8 µM (inactive),> 100 µM (inactive),> 100 µM (inactive),> 100 µM (inactive),> 100 µM (inactive),,> 100 µM (inactive),> 100 µM (inactive),> 100 µM (inactive),> 100 µM (inactive),> 100 µM (inactive),69 µM (inactive),,> 100 µM (inactive),> 100 µM (inactive)
CN(C)CCCN1c2ccc([N+](=O)[O-])cc2CCc2cc([N+](=O)[O-])ccc21,16 µM (inactive),16.4 µM (inactive),11.4 µM (inactive),15.6 µM (inactive),17.4 µM (inactive),10.3 µM (inactive),15.4 µM (inactive),14.5 µM (inactive),11.7 µM (inactive),13.1 µM (inactive),18.6 µM (inactive),15.2 µM (inactive),12 µM (inactive),15.8 µM (inactive),13.9 µM (inactive),15.3 µM (inactive),15.5 µM (inactive),14.6 µM (inactive),
CC1(c2cccc(Cl)c2)CC(c2cccc(Cl)c2)=C(C#N)C(=C(C#N)C#N)N1 (stereo not given),18 µM (inactive),18.9 µM (inactive),2.92 µM (inactive),16 µM (inactive),,22.3 µM (inactive),17.9 µM (inactive),17 µM (inactive),14.8 µM (inactive),14.3 µM (inactive),17.4 µM (inactive),22.1 µM (inactive),17.7 µM (inactive),17.9 µM (inactive),15.7 µM (inactive),19.1 µM (inactive),5.28 µM (inactive),16.7 µM (inactive),14.2 µM (inactive)
N#Cc1nc(CCCN2C(=O)c3ccccc3C2=O)oc1N,,> 100 µM (inactive),> 100 µM (inactive),> 100 µM (inactive),> 100 µM (inactive),> 100 µM (inactive),> 100 µM (inactive),> 100 µM (inactive),> 100 µM (inactive),> 100 µM (inactive),> 100 µM (inactive),> 100 µM (inactive),> 100 µM (inactive),> 100 µM (inactive),> 100 µM (inactive),,> 100 µM (inactive),> 100 µM (inactive),> 100 µM (inactive)
COc1cc(C2c3cc4c(cc3OC(NCCO)C2C)OCO4)cc(OC)c1O (stereo not given),6.78 µM (inactive),4.58 µM (inactive),,5.48 µM (inactive),3.27 µM (inactive),7.23 µM (inactive),29.2 µM (inactive),2.1 µM (inactive),20.4 µM (inactive),,24.6 µM (inactive),,12.8 µM (inactive),19 µM (inactive),8.26 µM (inactive),7.45 µM (inactive),3.23 µM (inactive),7.11 µM (inactive),> 100 µM (inactive)
CC1=C[P+](c2ccccc2)(c2ccccc2)c2ccccc2O1,2.07 µM (inactive),> 100 µM (inactive),,13 µM (inactive),3.25 µM (inactive),3.96 µM (inactive),7.11 µM (inactive),2.47 µM (inactive),> 100 µM (inactive),0.524 µM (active),4.07 µM (inactive),16.7 µM (inactive),14 µM (inactive),5.14 µM (inactive),25.2 µM (inactive),11.4 µM (inactive),,5.28 µM (inactive),3.42 µM (inactive)
Cc1cc(C#N)c(Nc2c(C)cccc2[N+](=O)[O-])s1,> 100 µM (inactive),25.4 µM (inactive),16.6 µM (inactive),28.8 µM (inactive),30.4 µM (inactive),24.7 µM (inactive),68.2 µM (inactive),61 µM (inactive),16.4 µM (inactive),> 100 µM (inactive),39.7 µM (inactive),27.3 µM (inactive),,42.9 µM (inactive),26.9 µM (inactive),21.5 µM (inactive),> 100 µM (inactive),,57.4 µM (inactive)
